Assay results: ChEMBL document CHEMBL1126434, “Anti-allergic and anti-inflammatory actions of 2-(tetrazole-5-yl)-4-hydroxy-2-methyl-2H-1,2-benzothiazine-3-carboxanilide 1,1-dioxide” (1992)

Assays:
Type in all cases: functional
Rattus norvegicus [1] = species on record: Rattus norvegicus; assay: Compound was evaluated for the inhibition of biosynthesis of prostaglandins at a concentration of 10e3 M
Rattus norvegicus [2] = species on record: Rattus norvegicus; assay: Compound was evaluated for the inhibition of biosynthesis of prostaglandins at a concentration of 10e4 M
Rattus norvegicus [3] = assay: Compound was assessed for ulcerogenicity in rats at a dose of 300 mg/kg
Rattus norvegicus [4] = assay: Compound was assessed for ulcerogenicity in rats at a dose of 500 mg/kg
Rattus norvegicus [5] = species on record: Rattus norvegicus; assay: Compound was evaluated for the inhibition of biosynthesis of prostaglandins at a concentration of 10e5 M

Compound: CN1C(C(=O)Nc2ccccc2-c2nn[nH]n2)=C(O)c2ccccc2S1(=O)=O
- Inhibition (Rattus norvegicus [1]): 0%
- Inhibition (Rattus norvegicus [2]): 0%
- Ulcer index (Rattus norvegicus [3]): 0
- Ulcer index (Rattus norvegicus [4]): 0
- Inhibition (Rattus norvegicus [5]): 0%

Compound: COc1ccc(/C=C/C(=O)Nc2ccccc2C(=O)O)cc1OC [TRANILAST]
- Inhibition (Rattus norvegicus [1]): 0%
- Inhibition (Rattus norvegicus [2]): 0%
- Ulcer index (Rattus norvegicus [3]): 0
- Ulcer index (Rattus norvegicus [4]): 0
- Inhibition (Rattus norvegicus [5]): 0%
